Key:
osteoclast = assay: Osteoclast differentiation inhibition, myeloplast-derived macrophage with hM-CSF and RANKL, TRAP staining (Example 4); assay type: cell-based, mice (C57BL/6J); settings: 10 mM; 30 ng/ml hM-CSF, 100 ng/ml RANKL; 4 days
Method: Myeloplasts collected from five-week mice (C57BL/6J) were added to 48-well plate and cultured in a differentiation medium [a-MEM (Invitrogen. co.), 10% (v/v) Fetal bovine serum (FBS), 100 units/ml penicillin, 100 μg/ml streptomycin] including 30 ng/ml of hM-CSF (R&D system Inc.) that is a macrophage differentiator for three days under the conditions of 37° C., 95% (v/v) air, and 5% (v/v) CO2 to be 4×10^4 cell/well so that the macrophase derived from the myeloplast was obtained. In this situation, in addition to the concentration of 30 ng/ml hM-CSF, mouse RANKL that is an osteoclast differentiator was expressed in E. coli; it was purely separated and purified; it was added in the concentration of 100 ng/ml; and then it was continuously cultured under the same conditions to induce the cell differentiation to the osteoclast. After culturing for 4 days, the cell was fixed with 3.7% formaldehyde for 15 minutes at room temperature; washed with distilled water twice; the staining solution made by mixing acetate, Fast Gargnet GBC base, naphtol AS-BI phosphate, […], and tartrate in the ratio as disclosed in the instructions of Acid Phosphatase, Leukocyte (TRAP) Kit™ (Sigma Co.) was added to be […]; and then reacted at 37° C. for 20 minutes to stain the differentiated osteoclast.

mouse osteoclast = assay: Osteoclast differentiation inhibition, mouse osteoclast with M-CSF and RANKL (Example 5); assay type: cell-based; settings: M-CSF 30 ng/ml, RANKL 200 ng/ml
Method: For FIG. 6, the mouse osteoclast (2×10^4/well) was added to 48 well plate; M-CSF (30 ng/ml) and RANKL (200 ng/ml) were added at the same time; and then 10 mM of each of C01, CO2, and G10 that are an osteopontin inhibitor was treated to analysis the inhibition ability for differentiating to an osteoclast.

mouse skull calvaria = assay: Mouse Calvaria Model, LPS-induced born destruction; assay type: in vivo; settings: Lipopolysaccharide 10 mg/kg to mouse skull; compound 10 mg/kg
Method: […] On 5 days, the mice calvaria were extracted; the cross-section of the calvaria was stained with H&E Staining to identify; and then the inhibition degree of the born destruction effect was analyzed using Image-pro Plus 4.5 (Media Cybernetics, Inc.).

| Compound | inhibition ability for differentiating to the osteoclast (osteoclast) | inhibition ability for differentiating to the osteoclast (mouse osteoclast) | effect on inhibiting the born destruction effect due to LPS in vivo (mouse skull calvaria) |
| --- | --- | --- | --- |
| O=C(O)C1CSC(c2ccccn2)N1 (stereo not shown) [IPS-02003, 2-Pyridin-2-yl-thiazolidine-4-carboxylic acid] | no inhibition ability | no inhibition ability |  |
| O=C1C(O)=C(O)C(=O)c2c(O)c(Cl)cc(O)c21 [IPS-02002, 6-Chloro-2,3,5,8-tetrahydroxy-[1,4]naphthoquinon] | excellent inhibition ability | excellent inhibition ability |  |
| O=C1C(O)=C(O)C(=O)c2c(O)c(Cl)c(Cl)c(O)c21 [IPS-02001, 6,7-Dichloro-2,3,5,8-tetrahydroxy-[1,4]naphthoquinone] | excellent inhibition ability | excellent inhibition ability | has the effect on inhibiting the born destruction effect |

Source: patent US20120264942A1, “METHOD FOR SCREENING OSTEOPONTIN INHIBITOR AND INHIBITOR OBTAINED FROM THE METHOD” (INNOPHARMASCREEN, INC., priority 2009, published 2012)
